The subject of the assay is G-quadruplex DNA (GQ) structures. Briefly: Immunofluorescence of GQ DNA (1H6 antibody). The conditions noted are these: OVCAR8, OVCAR4 and OVCAR8 RAD51C KO cells; 1 h, 3 h and 24 h post-treatment; 1 μM. The class given is cell-based, human. The protocol:
To examine the mechanism of activation of ATM/ATR signalling, we investigated the effects of CX-5461 treatment on the formation of GQ structures in OVCAR8, OVCAR8 RAD51C KO and OVCAR4 cells (Fig. 4a, b and Supplementary Fig. 4A–D).
Fig. 4 CX-5461 induces R-loops stabilization in HR-proficient OVCAR8 cells. a Co-immunofluorescence (Co-IF) of GQ DNA and UBF as a nucleolar marker in OVCAR8 cells and OVCAR8 RAD51C KO cells treated with either vehicle, 1 μM CX-5461 or 10 μM TMPyP4 for 3 h. Representative images of three biologically independent experiments. b Quantitation of GQ DNA immunofluorescence. Signal intensities were analyzed using CellProfiler. […] Representative images of two biologically independent experiments. d Quantitation of R-loops signal intensity was performed using CellProfiler. n = 230 cells per treatment condition were examined over two independent experiments. […] RNA was extracted and 47S rRNA precursor levels were determined using primers specific to the 5’ETS of pre-rRNA. Expression levels were normalized to NONO mRNA and expressed as a fold change relative to vehicle (n = 3 biologically independent experiments), error bars represent mean ± SEM, statistical analysis was performed using a two-sided one-way ANOVA, Tukey’s multiple comparisons test (adjusted p-values are shown). […]

For the molecule `Cc1cnc(CNC(=O)c2c(=O)c3ccc(N4CCCN(C)CC4)nc3n3c2sc2ccccc23)cn1` [CX-5461], the GQ stabilization result is reported as “did not induce GQ stabilization”.

The values above are taken from paper PMC7251123, “CX-5461 activates the DNA damage response and demonstrates therapeutic efficacy in high-grade serous ovarian cancer” (Nature Communications, 2020).
